# Measurements as given in ChEMBL document CHEMBL1201862, “PubChem BioAssay data set” (2004).
# Active and inactive are the calls of the source.
# Key:
# [1] = target: Peroxisome proliferator-activated receptor gamma/Nuclear receptor coactivator 1 (Homo sapiens, UniProt P37231); experiment: (§1) TR-FRET dose response biochemical High Throughput Screening assay for agonists of the steroid receptor coactivator 1 (SRC-1) recruitment by the peroxisome proliferator-activated receptor gamma (PPAR gamma): non-selective agonists. [Related pubchem assays (depositor defined):AID1300, AID1808, AID504735, AID631]; format: protein assay
# [2] = target: Peroxisome proliferator-activated receptor gamma/Nuclear receptor coactivator 3 (Homo sapiens, UniProt P37231); experiment: as §1, with “3 (SRC-3)” for “1 (SRC-1)”, “assays: 1301 (Confirmation screen.), 1048 (Primary screen.)]” for “assays (depositor defined):AID1300, AID1808, AID504735, AID631]”; format: functional
# Chain of Peroxisome proliferator-activated receptor gamma/Nuclear receptor coactivator 3 (P37231 whole entry): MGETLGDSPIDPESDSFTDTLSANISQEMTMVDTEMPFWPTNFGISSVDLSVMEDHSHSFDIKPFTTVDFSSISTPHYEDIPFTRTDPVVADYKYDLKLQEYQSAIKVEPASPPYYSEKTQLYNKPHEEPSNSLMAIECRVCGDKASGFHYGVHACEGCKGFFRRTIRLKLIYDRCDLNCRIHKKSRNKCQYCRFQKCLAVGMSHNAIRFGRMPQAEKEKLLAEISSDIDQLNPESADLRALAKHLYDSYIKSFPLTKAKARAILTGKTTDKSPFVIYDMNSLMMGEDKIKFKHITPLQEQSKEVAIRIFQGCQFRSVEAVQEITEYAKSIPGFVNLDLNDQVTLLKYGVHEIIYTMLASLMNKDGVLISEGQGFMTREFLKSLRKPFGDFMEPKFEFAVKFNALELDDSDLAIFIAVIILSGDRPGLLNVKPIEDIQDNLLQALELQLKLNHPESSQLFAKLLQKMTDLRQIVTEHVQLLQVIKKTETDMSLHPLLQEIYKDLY
# Chain of Peroxisome proliferator-activated receptor gamma/Nuclear receptor coactivator 3 (Q9Y6Q9 whole entry, further chain): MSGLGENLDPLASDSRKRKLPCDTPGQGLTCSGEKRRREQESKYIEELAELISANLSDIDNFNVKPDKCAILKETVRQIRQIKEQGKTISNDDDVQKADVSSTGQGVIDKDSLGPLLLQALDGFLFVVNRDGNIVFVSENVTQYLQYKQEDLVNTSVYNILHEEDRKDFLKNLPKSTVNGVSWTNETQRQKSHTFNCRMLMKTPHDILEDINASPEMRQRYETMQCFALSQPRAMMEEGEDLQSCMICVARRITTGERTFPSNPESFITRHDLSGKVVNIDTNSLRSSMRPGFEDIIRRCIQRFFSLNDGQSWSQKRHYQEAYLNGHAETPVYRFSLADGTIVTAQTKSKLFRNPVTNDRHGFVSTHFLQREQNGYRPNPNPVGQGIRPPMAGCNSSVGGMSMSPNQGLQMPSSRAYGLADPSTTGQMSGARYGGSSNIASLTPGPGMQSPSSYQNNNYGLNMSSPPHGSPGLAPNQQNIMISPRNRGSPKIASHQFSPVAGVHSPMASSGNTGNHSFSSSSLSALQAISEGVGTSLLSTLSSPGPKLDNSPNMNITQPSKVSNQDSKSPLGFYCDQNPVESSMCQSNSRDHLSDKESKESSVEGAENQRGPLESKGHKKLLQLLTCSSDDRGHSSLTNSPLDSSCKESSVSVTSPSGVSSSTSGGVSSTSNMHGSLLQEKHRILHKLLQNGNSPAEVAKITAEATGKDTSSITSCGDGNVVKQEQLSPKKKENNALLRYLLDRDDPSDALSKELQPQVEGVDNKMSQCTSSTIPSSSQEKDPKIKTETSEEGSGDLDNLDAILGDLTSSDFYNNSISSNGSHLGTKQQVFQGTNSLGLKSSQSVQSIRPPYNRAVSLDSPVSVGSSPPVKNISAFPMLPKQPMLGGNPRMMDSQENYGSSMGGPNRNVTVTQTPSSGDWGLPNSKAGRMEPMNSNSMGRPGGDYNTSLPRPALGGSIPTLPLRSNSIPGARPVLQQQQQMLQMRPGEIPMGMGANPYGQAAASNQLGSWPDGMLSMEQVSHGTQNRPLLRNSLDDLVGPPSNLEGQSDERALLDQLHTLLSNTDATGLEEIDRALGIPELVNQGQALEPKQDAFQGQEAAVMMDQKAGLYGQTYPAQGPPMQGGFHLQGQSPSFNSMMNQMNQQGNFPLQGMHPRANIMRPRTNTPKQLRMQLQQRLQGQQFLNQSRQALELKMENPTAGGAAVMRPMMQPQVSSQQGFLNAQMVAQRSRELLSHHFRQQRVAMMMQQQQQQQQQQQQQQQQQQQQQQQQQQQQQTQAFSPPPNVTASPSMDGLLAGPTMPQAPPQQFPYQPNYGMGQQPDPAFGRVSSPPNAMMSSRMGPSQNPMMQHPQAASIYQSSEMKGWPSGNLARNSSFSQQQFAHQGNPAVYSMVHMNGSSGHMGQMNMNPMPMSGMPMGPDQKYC
# [3] = target: Peroxisome proliferator-activated receptor gamma/Nuclear receptor coactivator 2 (Homo sapiens, UniProt P37231); experiment: TR-FRET dose response biochemical High Throughput Screening assay for agonists of the steroid receptor coactivator 2 (SRC-2) recruitment by the peroxisome proliferator-activated receptor gamma (PPAR gamma): non-selective agonists. [Related pubchem assays: 1297, 1032 ]; format: functional
# Chain of Peroxisome proliferator-activated receptor gamma/Nuclear receptor coactivator 2 (P37231 whole entry): as the sequence (P37231 whole entry) above
# Chain of Peroxisome proliferator-activated receptor gamma/Nuclear receptor coactivator 2 (Q15596 whole entry, further chain): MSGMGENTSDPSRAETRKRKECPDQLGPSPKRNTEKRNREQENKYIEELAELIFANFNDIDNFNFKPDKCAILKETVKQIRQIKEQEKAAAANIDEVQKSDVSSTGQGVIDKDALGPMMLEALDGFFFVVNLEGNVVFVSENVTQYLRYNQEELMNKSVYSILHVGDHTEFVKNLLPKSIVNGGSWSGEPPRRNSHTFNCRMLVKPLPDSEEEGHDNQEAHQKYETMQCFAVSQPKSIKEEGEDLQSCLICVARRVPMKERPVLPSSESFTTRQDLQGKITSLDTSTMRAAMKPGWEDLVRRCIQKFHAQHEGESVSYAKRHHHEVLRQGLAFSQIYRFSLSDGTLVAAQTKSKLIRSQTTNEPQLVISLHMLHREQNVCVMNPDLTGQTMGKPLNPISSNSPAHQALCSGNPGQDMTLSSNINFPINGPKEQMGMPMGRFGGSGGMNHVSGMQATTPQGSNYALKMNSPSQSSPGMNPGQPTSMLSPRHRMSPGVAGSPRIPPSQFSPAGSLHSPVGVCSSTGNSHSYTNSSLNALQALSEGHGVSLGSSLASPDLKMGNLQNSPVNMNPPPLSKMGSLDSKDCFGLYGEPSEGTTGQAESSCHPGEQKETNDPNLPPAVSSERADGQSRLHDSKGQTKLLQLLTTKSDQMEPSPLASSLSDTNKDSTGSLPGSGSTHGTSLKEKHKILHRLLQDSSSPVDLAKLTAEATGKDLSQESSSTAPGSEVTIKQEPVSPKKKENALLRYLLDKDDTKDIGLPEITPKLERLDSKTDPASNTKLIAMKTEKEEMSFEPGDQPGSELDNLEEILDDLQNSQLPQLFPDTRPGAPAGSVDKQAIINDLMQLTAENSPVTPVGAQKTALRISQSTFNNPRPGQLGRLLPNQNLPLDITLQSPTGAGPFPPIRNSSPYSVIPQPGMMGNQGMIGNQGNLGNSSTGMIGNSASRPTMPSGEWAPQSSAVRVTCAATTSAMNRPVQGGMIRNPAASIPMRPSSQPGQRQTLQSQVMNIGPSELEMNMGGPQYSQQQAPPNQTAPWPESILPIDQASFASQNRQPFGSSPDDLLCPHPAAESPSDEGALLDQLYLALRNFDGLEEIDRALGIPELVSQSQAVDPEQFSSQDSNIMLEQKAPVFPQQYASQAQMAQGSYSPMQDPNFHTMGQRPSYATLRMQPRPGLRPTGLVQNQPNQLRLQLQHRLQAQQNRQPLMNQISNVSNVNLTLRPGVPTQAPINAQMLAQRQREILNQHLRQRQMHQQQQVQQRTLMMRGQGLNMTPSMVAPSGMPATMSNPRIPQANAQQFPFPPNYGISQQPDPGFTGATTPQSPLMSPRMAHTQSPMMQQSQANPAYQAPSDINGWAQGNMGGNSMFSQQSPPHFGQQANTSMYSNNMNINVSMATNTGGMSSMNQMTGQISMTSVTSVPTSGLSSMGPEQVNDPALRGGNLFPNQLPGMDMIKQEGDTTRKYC
# HEK293 = experiment: inhibitors of LMP1-driven NF-kB reporter, dose response, cell-based, HEK293, luciferase, cherry-pick (AID 588343); format: functional; details: Homo sapiens
# [4] = target: T1, Epstein-Barr nuclear antigen 1 (Epstein-Barr virus (strain B95-8) (HHV-4) (Human herpesvirus 4), UniProt P03211); experiment: EBNA-1 inhibitors, dose response, biochemical, fluorescence polarization, 1536-well (AID 2381); set-up: species or system human gammaherpesvirus 4;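 note: fluorescence polarization of a Cy5 DNA probe bound by EBNA-1 protein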
# T1 sequence (P03211 whole entry): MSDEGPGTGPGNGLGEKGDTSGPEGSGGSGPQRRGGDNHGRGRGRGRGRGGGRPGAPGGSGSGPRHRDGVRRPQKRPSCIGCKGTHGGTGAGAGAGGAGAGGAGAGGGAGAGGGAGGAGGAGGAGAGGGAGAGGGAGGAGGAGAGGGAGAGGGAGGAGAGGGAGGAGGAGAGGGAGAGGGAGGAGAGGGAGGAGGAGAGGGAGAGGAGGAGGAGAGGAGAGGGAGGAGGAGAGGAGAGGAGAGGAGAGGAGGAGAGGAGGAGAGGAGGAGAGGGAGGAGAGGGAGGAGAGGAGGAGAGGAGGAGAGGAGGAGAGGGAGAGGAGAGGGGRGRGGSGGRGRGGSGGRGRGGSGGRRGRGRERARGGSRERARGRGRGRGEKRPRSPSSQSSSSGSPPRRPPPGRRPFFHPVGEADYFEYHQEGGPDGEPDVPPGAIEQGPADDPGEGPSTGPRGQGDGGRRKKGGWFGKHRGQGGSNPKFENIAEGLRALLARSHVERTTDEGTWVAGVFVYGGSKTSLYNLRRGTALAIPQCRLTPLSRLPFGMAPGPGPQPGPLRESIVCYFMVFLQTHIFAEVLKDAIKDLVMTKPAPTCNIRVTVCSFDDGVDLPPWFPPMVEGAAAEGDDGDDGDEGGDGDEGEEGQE
# [5] = target: T2, Lytic switch protein BZLF1 (Epstein-Barr virus (strain B95-8) (HHV-4) (Human herpesvirus 4), UniProt P03206); experiment: EBV ZTA inhibitors, dose response, counter-screen for EBNA-1 inhibitor project, biochemical, fluorescence polarization, Epstein-Barr virus, 1536-well (AID 2377); set-up: species or system human gammaherpesvirus 4;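 note: fluorescence polarization of Cy5-labelled ZRE DNA probe bound by purified Zta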
# T2 sequence (P03206 whole entry): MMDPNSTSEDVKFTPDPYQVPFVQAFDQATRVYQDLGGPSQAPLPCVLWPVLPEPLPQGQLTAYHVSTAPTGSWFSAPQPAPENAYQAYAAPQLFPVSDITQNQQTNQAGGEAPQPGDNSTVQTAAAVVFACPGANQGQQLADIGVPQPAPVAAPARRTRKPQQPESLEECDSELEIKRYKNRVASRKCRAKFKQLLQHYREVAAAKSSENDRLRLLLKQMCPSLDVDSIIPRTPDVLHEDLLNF
# [6] = target: DNA dC->dU-editing enzyme APOBEC-3A (Homo sapiens, UniProt P31941); experiment: Dose Response confirmation of small molecule APOBEC3A DNA Deaminase Inhibitors via a fluorescence-based single-stranded DNA deaminase assay. [Related pubchem assays (depositor defined):AID493011, AID493024]; format: functional
# [7] = target: DNA dC->dU-editing enzyme APOBEC-3G (Homo sapiens, UniProt Q9HC16); format: functional;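 note: Dose-response counterscreen measuring inhibition of APOBEC3G DNA deaminase activity, run while confirming APOBEC3A inhibitors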
# Cytochrome P450 2D6 = Cytochrome P450 2D6 (Homo sapiens, UniProt P10635);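 note: CYP2D6 member of a cytochrome P450 panel assay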
# [8] = cytotoxicity in HEK-293T cells, dose response, cytotoxicity control for TCR NF-kB inhibitor project, luminescence, T-cell screen hits (AID 489026); format: functional, cell-based;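 note: cells exposed to compound about 14 hours before the viability readout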
# Vero [9] = experiment: cells; format: functional, cell-based; details: Chlorocebus sabaeus
# Vero [10] = experiment: cells; format: functional; details: Chlorocebus sabaeus
# Paired box protein Pax-8 = Paired box protein Pax-8 (Homo sapiens, UniProt Q06710); experiment: inhibitors of PAX8-driven TPO luciferase reporter, dose response, RMG-I cells, cherry-pick (AID 687027); format: functional, cell-based;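 note: luciferase reporter driven by Pax8 target thyroperoxidase promoter measured by SteadyGlo luminescence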
# [11] = microbe, parasite or virus in culture; format: functional; details: Mycobacterium tuberculosis
# CAAX prenyl protease 2 = target: T3, CAAX prenyl protease 2 (Saccharomyces cerevisiae S288c, UniProt Q03530); format: biochemical
# T3 sequence (Q03530 whole entry): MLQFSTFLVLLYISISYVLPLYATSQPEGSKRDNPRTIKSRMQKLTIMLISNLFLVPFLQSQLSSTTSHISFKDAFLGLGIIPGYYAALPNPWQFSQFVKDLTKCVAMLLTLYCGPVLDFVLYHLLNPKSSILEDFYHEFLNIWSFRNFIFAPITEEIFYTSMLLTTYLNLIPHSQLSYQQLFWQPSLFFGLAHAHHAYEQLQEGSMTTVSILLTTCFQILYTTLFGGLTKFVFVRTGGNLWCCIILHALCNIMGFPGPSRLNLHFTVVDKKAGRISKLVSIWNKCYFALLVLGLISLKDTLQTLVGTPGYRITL
# Beta-galactosidase = Beta-galactosidase (Escherichia coli, UniProt Q8VNN2); experiment: PubChem AID 485352; format: functional
# Chain of Beta-galactosidase (Q8VNN2 whole entry): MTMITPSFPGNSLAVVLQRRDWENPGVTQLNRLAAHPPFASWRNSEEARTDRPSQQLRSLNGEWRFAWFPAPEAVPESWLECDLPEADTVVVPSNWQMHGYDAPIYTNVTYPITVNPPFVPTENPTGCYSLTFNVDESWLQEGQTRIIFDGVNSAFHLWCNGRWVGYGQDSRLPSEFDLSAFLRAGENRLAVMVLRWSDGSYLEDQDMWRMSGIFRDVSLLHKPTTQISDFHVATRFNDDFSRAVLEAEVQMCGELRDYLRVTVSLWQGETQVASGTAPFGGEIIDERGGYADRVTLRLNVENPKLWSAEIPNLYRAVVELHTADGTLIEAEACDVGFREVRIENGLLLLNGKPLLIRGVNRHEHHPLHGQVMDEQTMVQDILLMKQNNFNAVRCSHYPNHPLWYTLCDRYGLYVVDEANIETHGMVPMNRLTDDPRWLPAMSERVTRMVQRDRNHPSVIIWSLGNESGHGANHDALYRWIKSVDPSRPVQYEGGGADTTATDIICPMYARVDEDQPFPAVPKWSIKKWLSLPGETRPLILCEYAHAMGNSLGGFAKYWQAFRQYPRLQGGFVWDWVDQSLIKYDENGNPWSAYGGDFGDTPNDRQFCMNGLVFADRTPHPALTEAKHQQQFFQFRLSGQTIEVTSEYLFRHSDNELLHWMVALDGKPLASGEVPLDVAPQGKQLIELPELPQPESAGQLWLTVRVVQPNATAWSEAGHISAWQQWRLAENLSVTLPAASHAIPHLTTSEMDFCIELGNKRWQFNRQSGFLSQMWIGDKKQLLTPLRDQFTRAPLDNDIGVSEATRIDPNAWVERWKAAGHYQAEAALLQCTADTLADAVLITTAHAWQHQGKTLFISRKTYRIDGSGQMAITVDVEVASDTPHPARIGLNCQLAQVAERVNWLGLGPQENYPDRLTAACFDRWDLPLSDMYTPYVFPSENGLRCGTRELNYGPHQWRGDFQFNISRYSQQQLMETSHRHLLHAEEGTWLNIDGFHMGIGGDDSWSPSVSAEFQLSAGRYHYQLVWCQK
# [12] = target: T4, Type-1 angiotensin II receptor (Homo sapiens, UniProt P30556); experiment: AT1 receptor antagonists, dose response, selectivity assay for APJ receptor antagonist project, cell-based, uHTS hits (AID 463214); format: functional;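 note: antagonist potency against angiotensin II stimulated AT1 response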
# T4 sequence (P30556 whole entry): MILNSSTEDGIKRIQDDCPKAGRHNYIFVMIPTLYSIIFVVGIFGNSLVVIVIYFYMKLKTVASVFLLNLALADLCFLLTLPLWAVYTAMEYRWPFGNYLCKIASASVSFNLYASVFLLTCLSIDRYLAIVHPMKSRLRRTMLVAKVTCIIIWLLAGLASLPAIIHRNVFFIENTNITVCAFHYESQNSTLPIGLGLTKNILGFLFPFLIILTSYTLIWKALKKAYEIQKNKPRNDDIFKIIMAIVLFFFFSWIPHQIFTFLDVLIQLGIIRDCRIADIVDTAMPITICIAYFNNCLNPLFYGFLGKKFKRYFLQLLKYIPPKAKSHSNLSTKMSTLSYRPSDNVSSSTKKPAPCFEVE
# [13] = inhibitors of intracellular T. cruzi replication, confirmation, NIH3T3 host cells, beta-gal luminescence (AID 2044); format: functional, cell-based;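 note: intracellular parasites grown in NIH/3T3 mouse fibroblasts as host cells; luminescent beta-galactosidase reporter signal from transgenic T. cruzi replicating inside host cells; inhibitors lower the luminescence signal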
# [14] = cytotoxicity toward NIH3T3 fibroblasts, dose response, counter-screen, cell-based, ATP luminescence, mouse fibroblasts (AID 2010); format: functional;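 note: cells exposed to compound for about 90 hours before reading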
# [15] = target: T5, Heat shock factor protein 1 (Mus musculus, UniProt P38532); experiment: HSF1 potentiators in luciferase reporter cells, confirmation, cell-based, NIH3T3, luminescence, dose retest (AID 435004); format: functional;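 note: stress induced by proteasome inhibitor MG132 added 30 min after compound; luciferase reporter driven by HSF1 response element in NIH3T3 cells; actives raise luminescence as potentiators of the MG132 stress response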
# T5 sequence (P38532 whole entry): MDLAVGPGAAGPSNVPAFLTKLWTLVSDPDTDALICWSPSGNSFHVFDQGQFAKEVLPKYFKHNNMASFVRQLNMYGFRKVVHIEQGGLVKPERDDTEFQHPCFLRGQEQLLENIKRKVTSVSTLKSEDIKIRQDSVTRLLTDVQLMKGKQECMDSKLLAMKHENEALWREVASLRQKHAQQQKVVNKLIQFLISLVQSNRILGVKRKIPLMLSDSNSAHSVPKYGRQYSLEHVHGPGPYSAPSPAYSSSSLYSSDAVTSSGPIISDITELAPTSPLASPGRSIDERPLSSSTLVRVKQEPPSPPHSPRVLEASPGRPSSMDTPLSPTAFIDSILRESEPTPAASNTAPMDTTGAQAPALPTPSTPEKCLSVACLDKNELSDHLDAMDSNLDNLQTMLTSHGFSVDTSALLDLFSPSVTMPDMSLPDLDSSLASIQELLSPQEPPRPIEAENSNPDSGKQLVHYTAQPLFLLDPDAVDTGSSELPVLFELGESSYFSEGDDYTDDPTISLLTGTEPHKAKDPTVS
# [16] = Luminescence Cell-Based Dose Retest to Confirm Inhibitors of Cancer Stem Cells. [Related pubchem assays (depositor defined):AID2717, AID2721]; format: functional; details: Homo sapiens
# Prothrombin = Prothrombin (Homo sapiens, UniProt P00734); experiment: Thrombin 1536 HTS Dose Response Confirmation. [Related pubchem assays: 1046 (Thrombin 1536 HTS; hits were confirmed in this assay)]; format: functional
# BJ [17] = experiment: cytotoxicity toward BJ-TERT fibroblasts, dose response, cell-based, RAS-independent, luminescence (AID 1933); format: functional; details: Homo sapiens
# BJ [18] = experiment: cells; format: functional, cell-based; details: Homo sapiens
# [19] = target: Luciferin 4-monooxygenase (Photinus pyralis, UniProt P08659); experiment: firefly luciferase enzyme inhibitors, dose response, biochemical, luminescence (AID 1891)
# [20] = Luminescence Cell-Based Dose Confirmation HTS to Identify Inhibitors of Platelet Dense Granule Release. [Related pubchem assays: 1663 (Primary HTS), 1678 (Summary of Project)]; format: functional
# BJ [21] = experiment: cytotoxicity toward BJ-TERT-LT-ST fibroblasts, dose response, cell-based, RAS-independent, luminescence (AID 1935); format: functional; details: Homo sapiens;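 note: BJ fibroblasts immortalized with TERT plus LT and ST oncogenes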
# [22] = cytotoxicity toward DRD oncogenic fibroblasts, dose response, cell-based, non-viral oncogenic, luminescence (AID 1934); format: functional; details: Homo sapiens
smiles,measurement,setting,value
O=C(Nc1nc(-c2ccc(S(=O)(=O)N3CCCCCC3)cc2)cs1)c1ccccc1,EC50,[1],13.3 µM (inactive)
same,EC50,[2],40.9 µM (not active)
same,EC50,[3],15.8 µM (not active)
CC(=O)c1c(C)[nH]c(C(=O)Nc2ccc(C)cn2)c1C,AC50,HEK293,1.7 µM (active)
COc1ccccc1Nc1ncc(C(=O)Nc2ccc(OC)c(OC)c2)c2ccccc12,IC50,[4],16.5 µM (not active)
same,IC50,[5],> 111 µM (not active)
CCCC(=O)Nc1ccc2nc(SCC(=O)Nc3ccc(N4CCOCC4)c(Cl)c3)sc2c1,IC50,[4],> 148 µM (not active)
same,IC50,[5],> 111 µM (not active)
same,IC50,[6],4.33 µM (active)
same,IC50,[7],4.72 µM (active)
same,AC50,Cytochrome P450 2D6,10 µM (inconclusive)
O[C@@H]1[C@@H](O)C=C2CCN3Cc4cc5c(cc4[C@H]1C23)OCO5 (some centres not stated),IC50,[8],> 80 µM (inactive)
same,IC50,Vero [9],> 25 µM (active)
same,CC50,Vero [10],5.86 µM (active)
same,AC50,Paired box protein Pax-8,1.88 µM (active)
COc1ccc(CN2CCN(C(c3ccc(F)cc3)c3ccc(F)cc3)CC2)c(OC)c1OC,CC50,[11],> 40 µM (active)
same,AC50,CAAX prenyl protease 2,4.67 µM (active)
CNC(=S)NNC(=O)c1sccc1OCc1cccc(C(F)(F)F)c1,IC50,[4],9.69 µM (active)
same,IC50,[5],> 111 µM (not active)
CCOC(=O)c1oc2ccccc2c1NC(=O)c1ccc(S(=O)(=O)N(C)C)cc1,IC50,[4],16.6 µM (not active)
same,IC50,[5],> 111 µM (not active)
CCCCOC(=O)C(C)Nc1n[nH]c(=S)[nH]c1=O (configuration not stated),EC50,[1],17.3 µM (inactive)
same,EC50,[2],> 79.4 µM (not active)
same,EC50,[3],16.3 µM (not active)
O=C(CN1C(=O)c2ccccc2C1=O)NCC(=O)OCC(=O)c1cccc([N+](=O)[O-])c1,EC50,Beta-galactosidase,> 40 µM (inactive)
same,IC50,[12],17.4 µM (active)
CN(C)CCCNC(=O)/C=C/c1ccc(OCc2c(F)cccc2Cl)cc1,EC50,[13],0.327 µM (active)
same,EC50,[14],8.47 µM (active)
same,IC50,Vero [9],23.5 µM (active)
same,CC50,Vero [10],> 25 µM (active)
Cc1ccc(-c2nc3ccccc3[nH]2)cc1NC(=O)c1sc2cc(Cl)ccc2c1Cl,IC50,[4],13 µM (not active)
same,EC50,[13],0.642 µM (active)
same,IC50,[5],> 111 µM (not active)
same,EC50,[14],> 60 µM (inconclusive)
COc1ccc2nc(SC)c(C#N)cc2c1,EC50,[1],14.1 µM (inactive)
same,EC50,[2],41.8 µM (not active)
same,EC50,[3],12.3 µM (not active)
same,EC50,[15],> 260 µM (inactive)
COc1cc(/C=C/c2ccc3cccc(OC)c3n2)c(OC(C)=O)c([N+](=O)[O-])c1,EC50,Beta-galactosidase,26.9 µM (active)
same,IC50,[12],10.2 µM (active)
same,AC50,[16],7.38 µM (active)
O=C(CSc1nnc(-c2ccccc2)c(-c2ccccc2)n1)Nc1ccc(Br)cn1,IC50,Prothrombin,> 50 µM (inconclusive)
Cc1onc(-c2ccccc2Cl)c1C(=O)Nc1nnc(-c2ccc(Br)cc2)s1,EC50,[1],> 79.4 µM (inactive)
same,EC50,[2],> 79.4 µM (not active)
same,EC50,[3],45 µM (not active)
O=C(Nc1ccc(N2CCOCC2)cc1)C1CCN(S(=O)(=O)c2ccccc2F)CC1,IC50,Prothrombin,> 50 µM (not active)
COc1cccc(/C=N/Nc2ncccc2[N+](=O)[O-])c1OC,EC50,BJ [17],17.6 µM (active)
same,EC50,BJ [18],15.6 µM (inconclusive)
same,EC50,[19],5.27 µM (active)
same,EC50,[20],3.32 µM (active)
same,EC50,BJ [21],> 150 µM (not active)
same,EC50,[22],13.5 µM (active)
same,AC50,HEK293,1.8 µM (active)
Cc1ccc(N2CC(C(=O)N/N=C/c3cccc([N+](=O)[O-])c3)CC2=O)cc1 (configuration not stated),IC50,Prothrombin,> 50 µM (not active)
CC(=O)/N=c1\sc2nc3ccccc3nc2n1N(C(C)=O)C(C)=O,EC50,[1],25.2 µM (inactive)
same,EC50,[2],> 79.4 µM (not active)
same,EC50,[3],22.9 µM (not active)
